The record followed here is patent US12428432B2, “Thienopyrimidine derivatives having stereo configurations and use thereof in medicine” (SUNSHINE LAKE PHARMA CO., LTD., priority 2019, dated 2025).

One data set concerns the target ACC1 (Homo sapiens (Human), UniProt Q13085). Kind of data set: In vitro inhibitory activity test of acetyl-CoA carboxylase (ADP-Glo Kinase Analysis), ACC1. The format is biochemical. How it is done:
(§1) The in vitro inhibitory effects of the compounds on ACC1 or ACC2 were tested by ADP-Glo™ Kinase Analysis Kit from Promega Company. The ADP-Glo™ Kinase Analysis was a luminescent ADP detection analysis, which was used to measure enzyme activity by quantifying the amount of ADP produced during the enzyme reaction. The analysis was performed with two steps: first, after the enzyme reaction, ADP-Glo™ reagent was added to stop the reaction and deplete the remaining ATP; then, a kinase detection reagent was added to simultaneously convert ADP to ATP and the newly synthesized ATP was measured using the luciferase/luciferin reaction. The luminescence can be correlated to the ADP concentration by using the ATP to ADP conversion curve.
(§2) The specific steps are as follows: • a. 4.5 μL/well of ACC1/ACC2 working solution (2.22 nM) was added to a 384-well reaction plate (PerkinElmer, 6007290); • b. The compound (10 mM stock solution) was diluted 500 times to 20 μM with 100% DMSO, and diluted in a ratio of 1:3 in a 384 dilution plate (3657, corning). The gradient concentrations of the compound were 20, 6.67, 2.22 0.74, 0.25, 0.082, 0.027, 0.009, 0.003, 0.001, 0 μM; • c. 0.5 μL/well of the compound solution (prepared in step b) was transferred to the 384-well reaction plate (prepared in step a), then plate was centrifuged at 1000 rpm and incubated at 25° C. for 15 minutes; • d. […] Relative luminescence unit (RLU) was read on an Envision multifunction plate reader. […]
(§3) The average values of each concentration and the data of the positive and negative controls were calculated, as well as the standard deviation. The percentage of inhibition was calculated by the formula: 100×(average negative control−compound)/(average negative control−average positive control). The IC50 for each compound was calculated by fitting the data with a nonlinear regression equation: Y=Bottom+(Top−Bottom)/(1+10^((Log IC50−X)×HillSlope)), wherein X is the log of compound concentration and Y is the percentage of inhibition.
(ADP-Glo first removes unused ATP, then detects ADP through luciferase.)

In another data set the target is ACC2 (Homo sapiens (Human), UniProt O00763). Kind of data set: In vitro inhibitory activity test of acetyl-CoA carboxylase (ADP-Glo Kinase Analysis), ACC2. The format is biochemical. How it is done: as §1, §2, §3
Data set [1] can be described thus: Tissue distribution (liver/plasma) in mice after intragastric administration, LC-MS/MS. The conditions noted are these: C57BL/6 male mice; for Kp at 0.5 h / Kp at 1 h / Kp at 2 h / concentration at 0.5 h / concentration at 1 h / concentration at 2 h: mouse, oral, 5 ml/kg; for Kp at 0.5 h / Kp at 1 h / Kp at 2 h: liver/plasma; for Kp at 0.5 h: read-out: Partition ratios of liver and plasma 0.5 h; for Kp at 1 h: read-out: Partition ratios of liver and plasma 1 h; for Kp at 2 h: read-out: Partition ratios of liver and plasma 2 h. The format is in vivo, C57BL/6 mice. How it is done:
C57BL/6 mice were used as the test animals, the LC-MS/MS method was used to determine the drug concentration in plasma and liver at different times after the mice were administered intragastrically the compounds of Examples 1 to 3 and A13. Pharmacokinetic properties of the compounds of the present invention in mice were studied.
The prescriptions of A13, Example 1 and Example 2 were: 5% DMSO+5% Kolliphor HS15+90% Saline
The prescription of Example 3 was: 10% DMSO+10% Kolliphor HS15+80% Saline
Healthy adult C57BL/6 male mice, purchased from Hunan Slack Jingda Experimental Animal Co., Ltd., with an animal weight of 18-24 g, were administered intragastrically at a dosage of […] and a volume of 10 ml/kg.
Bloods were collected from the orbit at different time points, and the whole blood samples were placed in an anticoagulation tube containing EDTA-K2; the plasma was separated by centrifugation (centrifugation conditions: 12000 rpm, 2 min) and the upper plasma sample was collected and placed into a sample tube.
Animals were dissected and collected livers at different time points, a certain mass of liver tissue was weighed, 5 times the volume (m/V) of methanol solution was added to the homogenization tube, then homogenized at 60 hz for 2 minutes and centrifuged at 4° C. for 2 minutes, the supernatant was taken to obtain the liver homogenate.
LC-MS/MS was used to analyze the content of the test compounds in the plasma and liver of the mice after the compounds were administered intragastrically.

Data set [2] can be described thus: Liver microsome stability test. The format is in vitro ADME. The conditions noted are these: mouse liver microsomes, Conc. 1 μM; for half-life at 1 μM: male, CD-1; for Remaining (%) (NCF = 60 min): no cofactor (buffer instead of NADPH); for Remaining (%) (T = 60 min): with NADPH. How it is done:
Male CD-1 mouse liver microsomes, purchased from BD Gentest.
Preparation of stock solution: a certain amount of test compound of A13 and Example 1 were weighed to prepare a stock solution with a concentration of 10 mM with DMSO, and stored in a refrigerator at −20° C.
Preparation of NADPH solution: a certain amount of NADPH to be tested was weighed and prepared a solution with a concentration of 6 mM with 0.1 M potassium phosphate buffer (5 mg of NADPH was weighed and added to 1 mL of potassium phosphate buffer, the concentration was equivalent to 6 mM).
Preparation of compound dosing solution: 100 μM dosing solution: 5 μL of 10 mM stock solution was added to 495 μL of acetonitrile:water (1:1); 30 μM dosing solution: 60 μL of 100 μM dosing solution was added to 140 μL of 0.1 M potassium phosphate buffer; 1.5 μM dosing solution: 25 μL of 30 μM dosing solution and 18.8 μL (20 mg/mL) of liver microsomes were added to 456.2 μL of 0.1 M potassium phosphate buffer, one for each species.
μ30 μL of 1.5 μM dosing solution of the compound was added to a 96-well plate, 150 μL or 200 μL of acetonitrile internal standard was added immediately to the plate, then 15 μL of NADPH solution (6 mM) was added to the plate, the mixture was mixed well and placed in a 4° C. refrigerator as the initial 0 point sample, each drug was made two holes in parallel.
30 μL of 1.5 μM dosing solution was added to positions set at different time points in the 96-well plate, each drug was made two holes in parallel, and the pleat was preheated at 37° C. for 10 min.
After pre-incubation, 15 μL of NADPH solution (6 mM) was added to the well set at the time point of 60 min, at the time point of NCF60, 15 μL of potassium phosphate buffer salt solution was added at the same time to start the reaction and start timing. Then after 40 min, 15 μL of NADPH solution was added to the well set at 20 min. After 20 min, the incubation was over. 150 or 200 μL of acetonitrile internal standard was added to the positions set at all time points. The plate was centrifuged at 4000 rpm for 5 min, 50 μL supernatant was taken out and diluted with 150 μL water for sample analysis.
The initial 0 point was used as 100%, the relative content of the drug at each time point was calculated. GraphPad Prism5 software was used to plot the “relative content of the drug” versus “incubation time” to calculate the half-life of the drug and calculate the intrinsic clearance rate.
On the technique in general: Liver microsomes are vesicles of endoplasmic reticulum, rich in cytochrome P450 enzymes.

[3] abbreviates: liver, read-out: Average tissue concentrations (liver) 0.5 h.
The mark [4] stands for this setting: liver, 1 h, read-out: Average tissue concentrations (liver) 1 h.
Where [5] appears, read: liver, read-out: Average tissue concentrations (liver) 2 h.
[6] abbreviates: plasma, read-out: Average concentration (plasma) 0.5 h.
Setting [7] is: plasma, 1 h, read-out: Average concentration (plasma) 1 h.
[8] abbreviates: plasma, read-out: Average concentration (plasma) 2 h.

Where two headings read alike, the source gives them in different places.

Chain of ACC2 (O00763 whole entry, species assumed): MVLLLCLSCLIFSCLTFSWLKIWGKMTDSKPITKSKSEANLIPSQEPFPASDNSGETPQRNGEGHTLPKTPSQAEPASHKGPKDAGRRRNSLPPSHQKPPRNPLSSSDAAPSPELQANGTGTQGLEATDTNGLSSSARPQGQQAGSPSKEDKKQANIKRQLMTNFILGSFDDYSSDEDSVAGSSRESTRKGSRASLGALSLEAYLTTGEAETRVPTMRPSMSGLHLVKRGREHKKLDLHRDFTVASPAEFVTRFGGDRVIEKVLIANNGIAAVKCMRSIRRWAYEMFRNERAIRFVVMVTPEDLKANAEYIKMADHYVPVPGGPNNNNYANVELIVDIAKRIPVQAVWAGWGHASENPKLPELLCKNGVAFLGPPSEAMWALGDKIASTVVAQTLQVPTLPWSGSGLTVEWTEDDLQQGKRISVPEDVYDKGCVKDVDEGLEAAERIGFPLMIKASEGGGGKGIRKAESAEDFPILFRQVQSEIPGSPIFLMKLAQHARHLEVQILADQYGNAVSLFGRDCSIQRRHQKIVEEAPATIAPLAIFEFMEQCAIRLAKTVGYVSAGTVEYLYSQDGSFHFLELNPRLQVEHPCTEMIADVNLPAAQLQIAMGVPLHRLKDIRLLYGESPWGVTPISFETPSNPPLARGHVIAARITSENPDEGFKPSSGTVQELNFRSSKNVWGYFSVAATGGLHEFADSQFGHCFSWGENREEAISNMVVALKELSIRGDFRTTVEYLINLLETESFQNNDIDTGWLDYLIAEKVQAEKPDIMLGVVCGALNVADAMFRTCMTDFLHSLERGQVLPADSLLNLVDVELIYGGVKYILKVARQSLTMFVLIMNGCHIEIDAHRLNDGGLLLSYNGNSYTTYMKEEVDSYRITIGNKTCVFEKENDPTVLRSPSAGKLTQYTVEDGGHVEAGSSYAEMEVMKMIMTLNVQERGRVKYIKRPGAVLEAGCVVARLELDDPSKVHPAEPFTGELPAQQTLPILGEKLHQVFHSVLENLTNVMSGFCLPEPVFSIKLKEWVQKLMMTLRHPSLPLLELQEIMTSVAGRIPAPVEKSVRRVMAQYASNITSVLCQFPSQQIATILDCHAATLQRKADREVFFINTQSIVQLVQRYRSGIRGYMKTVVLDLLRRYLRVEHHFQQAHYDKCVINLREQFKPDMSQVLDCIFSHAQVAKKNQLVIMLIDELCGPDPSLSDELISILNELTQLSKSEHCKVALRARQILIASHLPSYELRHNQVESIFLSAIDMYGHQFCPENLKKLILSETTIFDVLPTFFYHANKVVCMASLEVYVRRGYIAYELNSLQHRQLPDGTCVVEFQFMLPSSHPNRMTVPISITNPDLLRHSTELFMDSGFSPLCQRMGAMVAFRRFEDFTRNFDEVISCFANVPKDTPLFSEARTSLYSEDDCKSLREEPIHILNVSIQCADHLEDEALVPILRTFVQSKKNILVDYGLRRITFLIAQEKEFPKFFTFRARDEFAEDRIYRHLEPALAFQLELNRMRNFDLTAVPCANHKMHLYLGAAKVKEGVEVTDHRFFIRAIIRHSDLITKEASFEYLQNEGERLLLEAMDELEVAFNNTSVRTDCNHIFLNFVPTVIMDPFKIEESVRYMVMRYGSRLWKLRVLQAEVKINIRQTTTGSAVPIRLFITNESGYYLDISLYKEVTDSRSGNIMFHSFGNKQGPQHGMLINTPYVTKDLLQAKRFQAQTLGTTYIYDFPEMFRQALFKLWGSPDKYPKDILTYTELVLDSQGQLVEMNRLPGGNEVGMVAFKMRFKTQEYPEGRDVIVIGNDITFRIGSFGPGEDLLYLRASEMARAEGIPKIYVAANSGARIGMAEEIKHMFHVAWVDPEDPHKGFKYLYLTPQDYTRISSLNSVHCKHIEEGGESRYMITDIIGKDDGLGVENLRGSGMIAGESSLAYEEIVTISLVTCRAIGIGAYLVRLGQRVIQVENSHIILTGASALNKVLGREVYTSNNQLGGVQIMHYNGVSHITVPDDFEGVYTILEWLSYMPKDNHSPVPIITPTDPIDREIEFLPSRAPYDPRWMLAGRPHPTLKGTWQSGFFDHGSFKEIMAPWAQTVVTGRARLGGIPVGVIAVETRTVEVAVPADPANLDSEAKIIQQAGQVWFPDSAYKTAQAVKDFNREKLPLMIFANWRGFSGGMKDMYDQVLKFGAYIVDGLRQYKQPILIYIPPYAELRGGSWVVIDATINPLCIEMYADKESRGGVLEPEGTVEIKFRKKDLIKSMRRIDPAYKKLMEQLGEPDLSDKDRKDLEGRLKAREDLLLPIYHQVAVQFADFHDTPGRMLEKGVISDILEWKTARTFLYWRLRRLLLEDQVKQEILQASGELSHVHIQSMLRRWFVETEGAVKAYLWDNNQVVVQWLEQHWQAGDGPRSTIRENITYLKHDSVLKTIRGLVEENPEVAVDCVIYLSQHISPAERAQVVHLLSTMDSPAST

Turning to `COc1ccccc1[C@H](Cn1c(=O)n(C(C)(C)C(=O)O)c(=O)c2c(C)c(-c3ncco3)sc21)O[C@H]1C[C@H]2COC[C@H]2C1` [Example 3, 2-[1-[(2R)-2-[[(3aR,6aS)-3,3a,4,5,6,6a-hexahydro-1H-cyclopenta[c]furan-5-yl]oxy]-2-(2-methoxyphenyl)ethyl]-5-methyl-6-oxazol-2-yl-2,4-dioxo-thieno[2,3-d]pyrimidin-3-yl]-2-methyl-propionic acid], it took 0.23 nM to reach half-maximal inhibition against ACC1 (IC50). Moreover, at ACC2, the IC50 is 2.43 nM. For the same compound, in data set [1], the “Partition ratios of liver and plasma 0.5 h” value amounted to 122; the “Partition ratios of liver and plasma 2 h” value amounted to 104. Further, in data set [1] (liver), the “Average tissue concentrations (liver) 0.5 h” value stood at 75500 ng/g and the “Average tissue concentrations (liver) 2 h” value turned out to be 26500 ng/g. For the same compound, in data set [1] (plasma), the “Average concentration (plasma) 0.5 h” value was determined as 669 ng/g and the “Average concentration (plasma) 2 h” value is listed as 253 ng/g.

`COc1ccccc1[C@H](Cn1c(=O)n(C(C)(C)C(=O)O)c(=O)c2c(C)c(-c3ncco3)sc21)OC1C[C@H]2COC[C@@H]2C1` [Example 1, 2-[1-[(2R)-2-[[(3aR,6aR)-3,3a,4,5,6,6a-hexahydro-1H-cyclopenta[c]furan-5-yl]oxy]-2-(2-methoxyphenyl)ethyl]-5-methyl-6-oxazol-2-yl-2,4-dioxo-thieno[2,3-d]pyrimidin-3-yl]-2-methyl-propionic acid] returned an IC50 at ACC1 of 1.42 nM. Moreover, the IC50 at ACC2 is 3.65 nM. In addition, in data set [2], the half-life at 1 μM worked out at 2.42 h, the ClHep is on record as 38.0 mL/min/kg, the Clin vivo stood at 9.6 mL/min/kg and the ER is listed as 0.1. Further, in data set [2], the “Remaining (%) (NCF = 60 min)” value was 90.6% and the “Remaining (%) (T = 60 min)” value is on record as 71.9%. Also, in data set [1], the “Partition ratios of liver and plasma 0.5 h” value is recorded as 190; the “Partition ratios of liver and plasma 2 h” value came to 600. Moreover, the “Partition ratios of liver and plasma 1 h” value in data set [1] (1 h) is 140. Besides, in data set [1] (liver), the “Average tissue concentrations (liver) 0.5 h” value is 75000 ng/g and the “Average tissue concentrations (liver) 2 h” value came to 35500 ng/g. In data set [1] (liver, 1 h), the “Average tissue concentrations (liver) 1 h” value stood at 48300 ng/g. Also, in data set [1] (plasma), the “Average concentration (plasma) 0.5 h” value was 391 ng/g and the “Average concentration (plasma) 2 h” value stood at 59.1 ng/g. Further, the “Average concentration (plasma) 1 h” value in data set [1] (plasma, 1 h) was 336 ng/g.

Consider `COc1ccccc1[C@H](Cn1c(=O)n(C(C)(C)C(=O)O)c(=O)c2c(C)c(-c3ncco3)sc21)OC1C[C@@H]2COC[C@H]2C1` [Example 2, 2-[1-[(2R)-2-[[(3aS,6aS)-3,3a,4,5,6,6a-hexahydro-1H-cyclopenta[c]furan-5-yl]oxy]-2-(2-methoxyphenyl)ethyl]-5-methyl-6-oxazol-2-yl-2,4-dioxo-thieno[2,3-d]pyrimidin-3-yl]-2-methyl-propionic acid], for which the IC50 against ACC1 worked out at 1.09 nM; on ACC2, 3.82 nM. The Kp at 0.5 h in data set [1] came out at 190. The Kp at 1 h in data set [1] (1 h) worked out at 120. For the same compound, the Kp at 2 h in data set [1] was 180. Also, the concentration at 0.5 h is 70400 ng/g in data set [1] (setting [3]) and 373 ng/g in data set [1] (setting [6]). Also, the figures for the concentration at 1 h in data set [1] (setting [4]) and in data set [1] (setting [7]) were 40600 ng/g and 351 ng/g, respectively. In addition, the concentration at 2 h is 16900 ng/g in data set [1] (setting [5]) and 96.4 ng/g in data set [1] (setting [8]).

As to `COc1ccccc1C(Cn1c(=O)n(C(C)(C)C(=O)O)c(=O)c2c(C)c(-c3ncco3)sc21)OC1CC2COCC2C1` (racemic) [Example A13, reference compound], in data set [2], the half-life at 1 μM worked out at 1.49 h, the ClHep is given as 60.9 mL/min/kg, the Clin vivo amounted to 36.3 mL/min/kg and the ER is reported as 0.4. For the same compound, in data set [2], the “Remaining (%) (NCF = 60 min)” value came out at 81.0% and the “Remaining (%) (T = 60 min)” value amounted to 63.4%. Further, in data set [1], the Kp at 0.5 h amounted to 86 and the Kp at 2 h stood at 170. Moreover, the Kp at 1 h in data set [1] (1 h) is 130. Further, the concentration at 0.5 h in data set [1] (setting [3]) turned out to be 61500 ng/g. Also, in data set [1] (setting [4]), the concentration at 1 h stood at 33300 ng/g. In addition, in data set [1] (setting [5]), the concentration at 2 h was 14000 ng/g. Moreover, the concentration at 0.5 h in data set [1] (setting [6]) turned out to be 717 ng/g. For the same compound, the concentration at 1 h in data set [1] (setting [7]) was found to be 249 ng/g. Besides, the concentration at 2 h in data set [1] (setting [8]) was 82.8 ng/g.

A word on the IC50: it is the concentration that inhibits the measured activity by half. High values mean weaker potency in that assay, low ones greater potency in that assay. The half-life is the time in which the quantity being followed falls by half. Low values mean rapid decline, high ones slow decline.
